In patent US20100041891A1, “AMIDE COMPOUND” (Takeda Pharmaceutical Company Limited, priority 2008, published 2010):

Experiments:
human GPR52 = target: T1, human GPR52 (Homo sapiens, UniProt Q9Y2T5); test: Increased intracellular cAMP levels in human GPR52 expression CHO cells; type: cell-based; conditions: 1 μM test compound, 30 min at 37° C., human GPR52 expression CHO (dhfr-) cells; 100% = cAMP level with 1 μM Reference Example 136, 0% = DMSO
T1 construct: expressed in transfected cells; host or cells: CHO (dhfr-) cells
Procedure: Increased intracellular cAMP levels in human GPR52 expression CHO cells 1×10^4 human GPR52 expression CHO (dhfr-) cells were incubated with 1 μM test compound for 30 min at 37° C. in 30 μL assay buffer (HBSS (containing Ca^2+ and Mg^2+), 0.5% BSA, 100 μM IBMX, 100 μM Ro 20-1724, 5 mM HEPES (pH 7.55)) using an OptiPlate-384 (by PerkinElmer). The intracellular cAMP level was then assayed with an EnVision (by PerkinElmer) according to the protocol of the AlphaScreen cAMP Assay Kit (by PerkinElmer). The GPR52 agonist activity was calculated, assuming the intracellular cAMP level in the presence of 1 μM of 3-(6-(2-(3,4-dimethoxyphenyl)ethoxy)pyridine-2-yl)-N-(2-pyrrolidin-1-ylethyl)benzamide (Reference Example 136) to be 100% and assuming the intracellular cAMP level when DMSO was added instead of test compound to be 0%.

[1] = tested on: methamphetamine-induced locomotor hyperactivity in mice; test: Inhibition of methamphetamine-induced locomotor hyperactivity; type: in vivo; conditions: male ICR mice, test compound 30 mg/kg orally, 60 min later methamphetamine 2 mg/kg subcutaneous, locomotor activity 90 min after methamphetamine, versus vehicle group
Procedure: Compounds of the present invention can be evaluated by assessing the inhibition of methamphetamine-induced locomotor hyperactivity in mice. The method of Okuyama et al was modified to test the inhibition of methamphetamine-induced locomotor hyperactivity (Life Science, Vol. 65, pages 2109-2125 (1999)).
Locomotor activity was measured using a 32-channel locomotor activity measurement device MDC-LT (by BrainScience Idea Co., Ltd.), which emits infrared beams from the top of a cage (30×40×20 cm). 6- to 8-week old male ICR mice were acclimated for at least 45 min in the measurement cages, and then either test compound (30 mg/kg) dissolved in vehicle (0.5% methylcellulose aqueous solution) or the vehicle alone were orally administered. This oral administration was followed 60 min later by subcutaneous administration of methamphetamine (2 mg/kg).
90 min after administration of methamphetamine, the number of times the laboratory animals passed through the infrared beams emitted inside the measurement cages was measured to quantify locomotor activity. The following equation was used to calculate the rate at which methamphetamine-induced locomotor hyperactivity was inhibited (activity inhibition rate (%)).
Activity inhibition rate (%)={1−(locomotor activity after treatment with methamphetamine in test compound treatment group÷locomotor activity after treatment with methamphetamine in vehicle treatment group)}×100

T1 sequence (Q9Y2T5 whole entry): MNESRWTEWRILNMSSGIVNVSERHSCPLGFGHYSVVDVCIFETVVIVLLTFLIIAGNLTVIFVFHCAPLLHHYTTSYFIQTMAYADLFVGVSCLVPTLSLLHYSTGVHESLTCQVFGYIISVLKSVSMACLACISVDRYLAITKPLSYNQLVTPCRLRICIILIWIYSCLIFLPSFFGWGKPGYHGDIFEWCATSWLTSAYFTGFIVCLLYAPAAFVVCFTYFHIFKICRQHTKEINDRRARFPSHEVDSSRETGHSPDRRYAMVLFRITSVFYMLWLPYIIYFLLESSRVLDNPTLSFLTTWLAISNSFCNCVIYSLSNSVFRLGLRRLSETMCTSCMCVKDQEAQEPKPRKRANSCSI

| GPR52 agonist activity (%) (human GPR52) | melting point [°C] | Compound | Activity Inhibition Rate (%) [1] [%] |
| --- | --- | --- | --- |
| 62 | – | O=C(NCCO)c1cccc(-c2cccc3cc(Cc4cc(F)cc(Cl)c4)sc23)n1 [Working Example 222, 6-[2-(3-Chloro-5-fluorobenzyl)-1-benzothiophen-7-yl]-N-(2-hydroxyethyl)pyridine-2-carboxamide] | – |
| 61 | – | CC(C)n1cc(Cc2cc3cccc(-c4cccc(C(=O)NCCO)c4)c3s2)ccc1=O [Working Example 292, N-(2-Hydroxyethyl)-3-[2-[[1-(1-methylethyl)-6-oxo-1,6-dihydropyridin-3-yl]methyl]-1-benzothiophen-7-yl]benzamide] | – |
| 82 | – | NC(=O)c1cccc(-c2cccc3cc(COc4cccc(C(F)(F)F)c4)sc23)c1 [Working Example 184, 3-(2-[[3-(Trifluoromethyl)phenoxy]methyl]-1-benzothiophen-7-yl]benzamide] | – |
| 75 | – | N#CCCNC(=O)c1cccc(-c2cccc3nn(Cc4ccc(F)c(Cl)c4)cc23)c1 [Working Example 65, 3-[2-(3-Chloro-4-fluorobenzyl)-2H-indazol-4-yl]-N-(2-cyanoethyl)benzamide] | – |
| 88 | – | O=C(NCCO)c1ccnc(-c2cccc3cc(Cc4cccc(C(F)(F)F)c4)sc23)c1 [Working Example 198, N-(2-Hydroxyethyl)-2-[2-[3-(trifluoromethyl)benzyl]-1-benzothiophen-7-yl]pyridine-4-carboxamide] | 45 |
| 85 | – | NC(=O)CNC(=O)c1cccc(-c2ccc(F)c3cc(Cc4cccc(C(F)(F)F)c4)sc23)c1 [Working Example 230, N-(2-Amino-2-oxoethyl)-3-[4-fluoro-2-[3-(trifluoromethyl)benzyl]-1-benzothiophen-7-yl]benzamide] | 58 |
| 83 | – | O=C(NCCO)c1cccc(-c2cncc3cc(Cc4cccc(C(F)(F)F)c4)oc23)c1 [Working Example 413, N-(2-Hydroxyethyl)-3-[2-[3-(trifluoromethyl)benzyl]furo[3,2-c]pyridin-7-yl]benzamide] | – |
| 90 | – | NC(=O)CNC(=O)c1cccc(-c2cccc3cc(Cc4ccc(F)c(Cl)c4)sc23)c1 [Working Example 174, N-(2-Amino-2-oxoethyl)-3-[2-(3-chloro-4-fluorobenzyl)-1-benzothiophen-7-yl]benzamide] | – |
| – | 89 to 94 | O=C(O)CNC(=O)c1cccc(-c2cccc3oc(Cc4cccc(C(F)(F)F)c4)cc23)c1 [Working Example 303, N-[(3-[2-[3-(Trifluoromethyl)benzyl]-1-benzofuran-4-yl]phenyl)carbonyl]glycine] | – |
| 93 | – | O=C(NCCO)c1cccc(-c2ccnc3cc(Cc4cccc(C(F)(F)F)c4)sc23)c1 [Working Example 265, N-(2-hydroxyethyl)-3-[2-[3-(trifluoromethyl)benzyl]thieno[3,2-b]pyridin-7-yl]benzamide] | – |
| 94 | – | Cc1c(Cc2cccc(C(F)(F)F)c2)sc2c(-c3cccc(C(=O)NCCO)c3)cccc12 [Working Example 191, N-(2-Hydroxyethyl)-3-[3-methyl-2-[3-(trifluoromethyl)benzyl]-1-benzothiophen-7-yl]benzamide] | 65 |
| 79 | – | CC(C)OCCNC(=O)c1cccc(-c2cccc3cc(Cc4cc(F)cc(Cl)c4)sc23)c1 [Working Example 360, 3-[2-(3-Chloro-5-fluorobenzyl)-1-benzothiophen-7-yl]-N-[2-(1-methylethoxy)ethyl]benzamide] | 41 |
| 74 | – | N#CCCNC(=O)c1ccnc(-c2cccc3oc(Cc4cccc(C(F)(F)F)c4)cc23)c1 [Working Example 21, N-(2-Cyanoethyl)-2-[2-[3-(trifluoromethyl)benzyl]-1-benzofuran-4-yl]isonicotinamide] | – |
| 89 | – | COCCNC(=O)c1cccc(-c2cccc3cc(Cc4cc(F)cc(Cl)c4)sc23)c1 [Working Example 179, 3-[2-(3-Chloro-5-fluorobenzyl)-1-benzothiophen-7-yl]-N-(2-methoxyethyl)benzamide] | – |
| 80 | – | NC(=O)CNC(=O)c1cccc(-c2cccc3sc(Cc4cccc(C(F)(F)F)c4)nc23)c1 [Working Example 252, N-(2-Amino-2-oxoethyl)-3-[2-[3-(trifluoromethyl)benzyl]-1,3-benzothiazol-4-yl]benzamide] | – |
| 94 | – | O=C(NCCO)c1cc(F)cc(-c2ccc(F)c3cc(Cc4cccc(C(F)(F)F)c4)sc23)c1 [Working Example 271, 3-Fluoro-5-[4-fluoro-2-[3-(trifluoromethyl)benzyl]-1-benzothiophen-7-yl]-N-(2-hydroxyethyl)benzamide] | – |
| 75 | – | N#CCCNC(=O)c1cccc(-c2nccc3oc(Cc4cccc(C(F)(F)F)c4)cc23)c1 [Working Example 23, N-(2-Cyanoethyl)-3-[2-[3-(trifluoromethyl)benzyl]furo[3,2-c]pyridin-4-yl]benzamide] | – |
| 113 | – | NC(=O)CNC(=O)c1cccc(-c2cccc3c(F)c(Cc4cccc(C(F)(F)F)c4)sc23)c1 [Working Example 405, N-(2-Amino-2-oxoethyl)-3-[3-fluoro-2-[3-(trifluoromethyl)benzyl]-1-benzothiophen-7-yl]benzamide] | – |
| 80 | – | COCCNC(=O)c1cccc(-c2ccc(F)c3cc(Cc4cccc(S(C)(=O)=O)c4)sc23)c1 [Working Example 159, 3-[4-Fluoro-2-[3-(methylsulfonyl)benzyl]-1-benzothiophen-7-yl]-N-(2-methoxyethyl)benzamide] | – |
| 59 | – | Cn1c(Cc2cccc(C(F)(F)F)c2)nc2c(-c3cccc(C(=O)NCCC#N)c3)cccc21 [Working Example 88, N-(2-Cyanoethyl)-3-[1-methyl-2-[3-(trifluoromethyl)benzyl]-1H-benzimidazol-4-yl]benzamide] | 37 |
| 81 | – | NC(=O)CNC(=O)c1cncc(-c2cccc3cc(Cc4cc(F)cc(Cl)c4)sc23)c1 [Working Example 221, N-(2-Amino-2-oxoethyl)-5-[2-(3-chloro-5-fluorobenzyl)-1-benzothiophen-7-yl]pyridine-3-carboxamide] | – |
| 108 | – | NC(=O)CNC(=O)c1cccc(-c2cccc3sc(Cc4cccc(C(F)(F)F)c4)cc23)c1 [Working Example 165, N-(2-Amino-2-oxoethyl)-3-[2-[3-(trifluoromethyl)benzyl]-1-benzothiophen-4-yl]benzamide] | – |
| 92 | – | O=C1NCc2c1cccc2-c1cccc2cc(Cc3cccc(C(F)(F)F)c3)sc12 [Working Example 326, 4-[2-[3-(Trifluoromethyl)benzyl]-1-benzothiophen-7-yl]-2,3-dihydro-1H-isoindole-1-one] | – |
| 82 | – | O=C(NCCO)c1cccc(-c2cccc3oc(Cc4cccc(C(F)(F)F)c4)cc23)c1 [Working Example 7, N-(2-Hydroxyethyl)-3-[2-[3-(trifluoromethyl)benzyl]-1-benzofuran-4-yl]benzamide] | 89 |
| 67 | – | O=C(NCCO)c1cccc(-c2cccn3c(=O)n(Cc4cccc(C(F)(F)F)c4)nc23)c1 [Working Example 99, N-(2-Hydroxyethyl)-3-[3-oxo-2-[3-(trifluoromethyl)benzyl]-2,3-dihydro[1,2,4]triazolo[4,3-a]pyridin-8-yl]benzamide] | – |
